Test results taken from patent US9120789B2, “1-(5-tert-butyl-2-phenyl-2H-pyrazol-3-yl)-3-[2-fluoro-4-(1-methyl-2-oxo-2,3-dihydro-1H-imidazo[4,5-b]pyridin-7-yloxy)-phenyl]-urea and related compounds and their use in therapy” (CANCER RESEARCH TECHNOLOGY LIMITED, priority 2010, dated 2015).

Key:
[1] = system: SW620 colorectal carcinoma cell line (mutant RAS); test: Assay C - SRB cell proliferation assay, SW620; assay type: cell-based; settings: Homo sapiens, SW-620, 120 h; SW620, 5 days growth
Description: Values for the blank (no cells) are subtracted from all values. The DMSO controls are set as 100% activity and assay points (the response) are calculated as a percentage of the DMSO control. Data are plotted using Graphpad Prism software and a non-linear regression line is calculated using a variable slope sigmoidal dose-response equation: Y=Bottom+[Top−Bottom]/[1+10^((Log EC50−X)*HillSlope)] where X is the logarithm of concentration and Y is the response). The IC50 generated by this procedure is the concentration of the drug that produces a percentage control fluorescence value midway between the saturation, and zero-effect plateaus. Three independent assays are usually performed and the mean IC50 is reported. Biological Methods—Assay C—SRB Cell Proliferation Assay (SRB GI50)
Cell lines (e.g., WM266.4 and A375M melanoma cell lines; SW620 colorectal carcinoma cell line) are routinely cultured in DMEM or RPMI1640 supplemented with 10% foetal bovine serum, at 37° C., in 10% CO2 water saturated atmosphere. Cultures are maintained in exponential growth phase by sub-culturing before having become confluent (3-5 day intervals). Single cell suspensions are prepared by harvesting an 80 cm^2 tissue culture flask with 5 mL commercial trypsin EDTA. After 5 minutes, the detached cells are mixed with 5 mL fully complemented culture medium and centrifugally pelleted (1000 rpm for 7 minutes). After aspirating the supernatant, the cell pellet is re-suspended in 10 mL fresh medium and the cells fully disaggregated by drawing the whole volume up/down 5 times through a 19-gauge needle. The concentration of the cells is determined using a haemocytometer ( 1/10 dilution). A suitable volume to give at least a 2-fold excess for the number of tests being conducted, typically 100-200 mL, is prepared by diluting the cell suspension to 10,000-40,000/mL, and 100 μL/well dispensed into 96 well plates using a programmable 8-channel peristaltic pump, giving 1000-4000 cells/well, leaving column 12 blank. The plates are returned to the incubator for 24 hours to allow the cells to re-attach.
The compounds being tested are prepared at 10 mM in DMSO. Aliquots (24 μL) are diluted into 1.2 mL culture medium giving 200 μM, and 10 serial dilutions of 3× performed by transferring 80 μL to 160 μL. Aliquots (100 μL) of each dilution are added to the wells, using an 8-channel pipettor, thus performing a final further 2× dilution, and giving doses ranging from 100 μM to 0.005 μM. Column 11 receives plain culture medium only. Each compound is tested in quadruplicate, each replicate being the average of four wells.
After a further 5 days growth, the plates are emptied, and the cells are fixed in 10% trichloroacteic acid for 30 minutes at 4° C. After thorough rinsing in running tap water, the plates are dried, and stained by adding 50 μL of a solution of 0.1% sulphorhodamine-B in 1% acetic acid, for 10 minutes at room temperature. The stain is poured out and the plates thoroughly rinsed under a stream of 1% acetic acid, thus removing unbound stain, and dried. The bound stain is taken into solution by addition of 100 μL Tris buffer pH 8, followed by 10 minutes on a plate-shaker (approximately 500 rpm). The absorbance at 540 nm in each well (being proportional to the number of cells present) is determined using a plate reader.
After averaging the blank values in column 12 this was subtracted from all values, and results expressed as a percentage of the untreated value (column 11). […] The GI50 generated by this procedure is the concentration of the drug that produces a percentage control A540 midway between the saturation, and zero-effect plateaus.

[2] = system: A375M human melanoma cells (mutant BRAF) xenograft; test: Xenograft study, mutant BRAF A375; assay type: in vivo, mice; settings: for Factor of tumour volume reduction as compared to the control: over the timescale of the study
Description: Biological Methods—Xenograft Studies
SW620 human colorectal carcinoma cells (mutant RAS, 7×10^7) or A375M human melanoma cells (mutant BRAF, 10^7) were inoculated sub-cutaneously in suspension (0.2 mL) into the right flank of female Crl:CD1-Foxn1nu athymic mice. Groups were assigned to treatment following stratified allocation of tumour volumes. Treatment with test compound began between days 11-14 post-cell administration. For gavage, a suspension (DMSO:water, 1:19, v/v at 10 m L/kg) was administered. Control animals received a similar dosage of vehicle (DMSO:water, 1:19, v/v). Treatment with test compound was continued once daily for 24 doses.

| GI50 [1] [nM] | Structure (SMILES) | Factor of tumour volume reduction as compared to the control [2] | Effect on tumour volume as compared to the control (in words) [2] |
| --- | --- | --- | --- |
| 1680 | Cc1ccc(-n2nc(C(C)(C)C)cc2NC(=O)Nc2ccc(Oc3ccnc4[nH]c(=O)n(C)c34)c3ccccc23)cc1 [BB-02, 1-(1-N-p-tolyl-3-tert-butyl-pyrazol-5-yl)-3-(4-(2-oxo-2,3-dihydro-1-N-methyl-1H-imidazo[4,5-b]pyridin-7-yl-oxy)naphthalen-1-yl)urea] | about 1.5 |  |
| 450 | Cc1ccc(-n2nc(C(C)(C)C)cc2NC(=O)Nc2ccc(Oc3ccnc4[nH]c(=O)n(C)c34)cc2)cc1 [XX-02, 1-(1-N-p-tolyl-3-tert-butyl-pyrazol-5-yl)-3-(4-(2-oxo-2,3-dihydro-1-N-methyl-1H-imidazo[4,5-b]pyridin-7-yl-oxy)phenyl)urea] |  | at least to some degree effective |
| 167 | Cn1c(=O)[nH]c2nccc(Oc3ccc(NC(=O)Nc4cc(C(C)(C)C)nn4-c4ccccc4)c(F)c3)c21 [AA-01, 1-(3-Tert-butyl-1-phenyl-1H-pyrazol-5-yl)-3-(2-fluoro-4-(1-N-methyl-2-oxo-2,3-dihydro-1H-imidazo[4,5-b]pyridin-7-yloxy)phenyl)urea] | about 2.5 |  |
| 2720 | CC(C)(C)c1cc(NC(=O)Nc2ccc(Oc3ccnc4[nH]c(=O)[nH]c34)cc2)n(-c2ccc(F)cc2)n1 [XX-04, 1-[5-tert-Butyl-2-(4-fluoro-phenyl)-2H-pyrazol-3-yl]-3-[4-(2-oxo-2,3-dihydro-1H-imidazo[4,5-b]pyridin-7-yloxy)-phenyl]urea] |  |  |
| 840 | CC(C)(C)c1cc(NC(=O)Nc2ccc(Oc3ccnc4[nH]c(=O)[nH]c34)cc2)n(-c2ccccc2)n1 [XX-01, 1-(5-Tert-butyl-2-phenyl-2H-pyrazol-3-yl)-3-[4-(2-oxo-2,3-dihydro-1H-imidazo[4,5-b]pyridin-7-yloxy)-phenyl]-urea] |  |  |
| 6830 | Cn1c(=O)n(C)c2c(Oc3ccc(NC(=O)Nc4cc(C(C)(C)C)nn4-c4ccccc4)c(F)c3)ccnc21 [XX-03, 1-(3-Tert-butyl-1-phenyl-1H-pyrazol-5-yl)-3-(4-(1,3-dimethyl-2-oxo-2,3-dihydro-1H-imidazo[4,5-b]pyridin-7-yloxy)-2-fluorophenyl)urea] |  |  |
| 1600 | Cn1c(=O)[nH]c2nccc(Oc3ccc(NC(=O)Nc4cc(C(C)(C)C)nn4-c4ccccc4)c4ccccc34)c21 [BB-01, 1-(3-Tert-butyl-1-phenyl-1H-pyrazol-5-yl)-3-(4-(1-methyl-2-oxo-2,3-dihydro-1H-imidazo[4,5-b]pyridin-7-yloxy)naphthalen-1-yl)urea] |  |  |
